Reference: paper PMC9116245, “New 1,2,3-triazole linked ciprofloxacin-chalcones induce DNA damage by inhibiting human topoisomerase I& II and tubulin polymerization” (Journal of Enzyme Inhibition and Medicinal Chemistry, 2022)

Assays:
Topo IIα = biological target: T1, Topo IIα (Homo sapiens, UniProt P11388); assay: Human Topoisomerase II assay kit (TG1001); format: biochemical; settings: 10 µM
T1 construct: purchased Topogen Inc. TG1001
Procedure: Second, the inhibitory activity of Topo IIα was evaluated for compounds 4a, 4b, 4e, 4i, and 4j utilising Human Topoisomerase II assay kit (TG1001, Topogen Inc.). […] The above results are compatible with our design of these hybrids as Top-II inhibitors.
The inhibitory activity of the selected ciprofloxacin hybrids on human Top-II was tested using a Human Topoisomerase II assay kit (TG1001, Topogen Inc.). In this assay, 1% agarose gel was used, and the compounds were tested at two different concentrations, 10 and 100 µM. Also, etoposide was used as a positive control in this experiment. The assay was performed according to the manufacturer’s protocol. The image of the electrophoretic gel was captured using an imaging system (iBright-CL1500, Thermo Fisher Scientific).

γH2AX [1] = assay: γH2AX western blotting in HCT116 cells; format: cell-based, human; settings: HCT116, IC50 of compound, versus control cells
Description: (§1) DNA damage is a major reason for inhibiting proliferation and inducing cytotoxicity in cancer cells as well as the main downstream cascade for the Topo-I, Top-II, and tubulin polymerisation inhibition. The phosphorylation of the histone H2AX always occurs after DNA damage forming double-stranded breaks (DSBs). Therefore, we tested the capability of the potent prepared compounds to trigger DNA double strand breaks through detection of the phosphorylation of γH2AX using two different techniques, Immunofluorescence, and western blotting.
(§2) Western blotting analysis for HCT116 cells was performed according to the reported procedure in the literature[77–79] to determine the effects of CP hybrids; 4a, 4b, 4e, 4i, and 4j on the expression of polymerised tubulin, γH2AX, p-ATR, p-CHK1, and p-Cdc25C by using the appropriate antibody. See Supplementary Appendix A.

γH2AX [2] = assay: γH2AX immunofluorescence in HCT116 cells; format: cell-based, human; settings: HCT116, IC50 of compound
Description: as §1
(§3) HCT116 cells were cultured and treated with the IC50 of the potent compounds (4a, 4b, 4e, 4i, and 4j) or DMSO (control), fixed, permeabilized, and they were incubated with either γH2AX or α-tubulin antibody as the reported procedure in the literature. Confocal images were captured using a Confocal Microscope with a 63X objective. All images were processed using ImageJ software. See Supplementary Appendix A.

tubulin polymerisation = assay: Tubulin immunofluorescence microscopy in HCT116 cells; format: cell-based, human; settings: HCT116, IC50 of compound, 36 h
Procedure: (§4) The process of tubulin polymerisation in the cells is important for the completion of mitosis and is targeted for cancer treatment. It has been reported that the suppression of tubulin polymerisation will arrest the cells at the G2/M and it eventually leads to cell death. To test the tubulin-disruptive effect of the CP hybrids, HCT116 cells were analysed by immunocytochemistry. HCT116 cells were incubated for 36 h with IC50 of the CP hybrids (4a, 4b, 4e, 4i, and 4j), nocodazole (a well-known tubulin polymerisation inhibitor, as a positive control), DMSO or Paclitaxel (a well-known tubulin polymerisation inducer, as a negative control), and tubulin was visualised by immunofluorescence microscopy. An antibody for α-tubulin was used. […] Moreover, a Western blot was performed to verify the tubulin polymerisation inhibition ability of the synthesised compounds (Figure 8(B)). The level of polymerised tubulin was decreased in HCT116 cells treated with IC50 values of CP hybrids 4a, 4b, 4e, 4i, 4j, or nocodazole.
as §3

polymerised tubulin = assay: Western blot of polymerised tubulin in HCT116 cells; format: cell-based, human; settings: HCT116, IC50 values of compounds
Procedure: as §4, §2

ATR/CHK1/Cdc25C pathway = assay: Western blot of ATR-Chk1-Cdc25C cascade in HCT116 cells; format: cell-based, human
Procedure: To clarify the molecular mechanism responsible for inducing G2/M phase arrest in HCT116 following the treatment with the synthesised compounds, the signalling in the checkpoint pathway that regulates the G2/M transition was investigated. The mammalian cells respond to the DNA damage through 2 different kinase-signalling cascades (ATR-Chk1 and ATM-Chk2). First, the effect of the synthesised compounds on ATM and ATR phosphorylation was tested. […] Then, the phosphorylation of downstream effectors of ATM/ATR, phospho-Chk1-S269, and phospho-Chk2-T68 kinases was explored. […] It is well known that in vitro activation of Chk1 phosphorylates Cdc25C on serine-216. Therefore, the impact of the synthesised compounds on the Cdc25C phosphorylation at Ser-216 was investigated.
as §2

[3] = biological target: T2, recombinant human DNA topoisomerase I (Homo sapiens, UniProt P11387); assay: Human DNA Topoisomerase I Assay Kit (ProFoldin); format: biochemical; settings: compounds at their IC50 values, reference camptothecin
T2 construct: purchased Sigma-Aldrich
T2 sequence (P11387 1-765): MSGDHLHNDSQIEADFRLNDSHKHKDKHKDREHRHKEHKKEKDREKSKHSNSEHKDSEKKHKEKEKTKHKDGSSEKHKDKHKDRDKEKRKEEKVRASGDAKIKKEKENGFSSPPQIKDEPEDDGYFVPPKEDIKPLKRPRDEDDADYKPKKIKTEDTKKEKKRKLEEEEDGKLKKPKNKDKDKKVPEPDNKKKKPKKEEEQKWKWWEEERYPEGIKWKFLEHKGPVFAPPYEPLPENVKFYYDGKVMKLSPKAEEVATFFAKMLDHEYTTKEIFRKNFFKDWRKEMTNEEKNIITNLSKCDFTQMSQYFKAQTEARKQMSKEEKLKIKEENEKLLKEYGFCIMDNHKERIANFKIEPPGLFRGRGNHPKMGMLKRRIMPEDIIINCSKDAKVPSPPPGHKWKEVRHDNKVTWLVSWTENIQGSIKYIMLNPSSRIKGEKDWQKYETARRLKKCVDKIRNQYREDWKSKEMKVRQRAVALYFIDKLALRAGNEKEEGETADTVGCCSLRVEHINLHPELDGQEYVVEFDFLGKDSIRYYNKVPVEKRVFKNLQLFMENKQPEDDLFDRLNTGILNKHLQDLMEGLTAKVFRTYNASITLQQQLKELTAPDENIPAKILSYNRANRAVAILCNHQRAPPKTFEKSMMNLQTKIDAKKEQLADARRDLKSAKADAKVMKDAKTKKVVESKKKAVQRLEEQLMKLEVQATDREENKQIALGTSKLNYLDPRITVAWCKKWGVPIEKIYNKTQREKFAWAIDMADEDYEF

HCT116 cells = assay: Analysis of cell cycle distribution; format: cell-based, human; settings: HCT116, different concentrations, 24 h
Description: Generally, the mammalian cells counteract the DNA damage by different mechanisms including the cell cycle arrest to allow the cell to repair the damage. There are 2 checkpoints that control DNA damage. The first checkpoint is at the G1/S transition while the other checkpoint is at the G2/M transition. To cover the mechanisms of the synthesised compounds in inhibiting cell proliferation, we analysed the distribution of cell cycle of HCT116 cells following the treatment with different doses of 4a, 4b, 4e, 4i, and 4j. […] See Supplementary Appendix A.

T1 sequence (P11388 whole entry): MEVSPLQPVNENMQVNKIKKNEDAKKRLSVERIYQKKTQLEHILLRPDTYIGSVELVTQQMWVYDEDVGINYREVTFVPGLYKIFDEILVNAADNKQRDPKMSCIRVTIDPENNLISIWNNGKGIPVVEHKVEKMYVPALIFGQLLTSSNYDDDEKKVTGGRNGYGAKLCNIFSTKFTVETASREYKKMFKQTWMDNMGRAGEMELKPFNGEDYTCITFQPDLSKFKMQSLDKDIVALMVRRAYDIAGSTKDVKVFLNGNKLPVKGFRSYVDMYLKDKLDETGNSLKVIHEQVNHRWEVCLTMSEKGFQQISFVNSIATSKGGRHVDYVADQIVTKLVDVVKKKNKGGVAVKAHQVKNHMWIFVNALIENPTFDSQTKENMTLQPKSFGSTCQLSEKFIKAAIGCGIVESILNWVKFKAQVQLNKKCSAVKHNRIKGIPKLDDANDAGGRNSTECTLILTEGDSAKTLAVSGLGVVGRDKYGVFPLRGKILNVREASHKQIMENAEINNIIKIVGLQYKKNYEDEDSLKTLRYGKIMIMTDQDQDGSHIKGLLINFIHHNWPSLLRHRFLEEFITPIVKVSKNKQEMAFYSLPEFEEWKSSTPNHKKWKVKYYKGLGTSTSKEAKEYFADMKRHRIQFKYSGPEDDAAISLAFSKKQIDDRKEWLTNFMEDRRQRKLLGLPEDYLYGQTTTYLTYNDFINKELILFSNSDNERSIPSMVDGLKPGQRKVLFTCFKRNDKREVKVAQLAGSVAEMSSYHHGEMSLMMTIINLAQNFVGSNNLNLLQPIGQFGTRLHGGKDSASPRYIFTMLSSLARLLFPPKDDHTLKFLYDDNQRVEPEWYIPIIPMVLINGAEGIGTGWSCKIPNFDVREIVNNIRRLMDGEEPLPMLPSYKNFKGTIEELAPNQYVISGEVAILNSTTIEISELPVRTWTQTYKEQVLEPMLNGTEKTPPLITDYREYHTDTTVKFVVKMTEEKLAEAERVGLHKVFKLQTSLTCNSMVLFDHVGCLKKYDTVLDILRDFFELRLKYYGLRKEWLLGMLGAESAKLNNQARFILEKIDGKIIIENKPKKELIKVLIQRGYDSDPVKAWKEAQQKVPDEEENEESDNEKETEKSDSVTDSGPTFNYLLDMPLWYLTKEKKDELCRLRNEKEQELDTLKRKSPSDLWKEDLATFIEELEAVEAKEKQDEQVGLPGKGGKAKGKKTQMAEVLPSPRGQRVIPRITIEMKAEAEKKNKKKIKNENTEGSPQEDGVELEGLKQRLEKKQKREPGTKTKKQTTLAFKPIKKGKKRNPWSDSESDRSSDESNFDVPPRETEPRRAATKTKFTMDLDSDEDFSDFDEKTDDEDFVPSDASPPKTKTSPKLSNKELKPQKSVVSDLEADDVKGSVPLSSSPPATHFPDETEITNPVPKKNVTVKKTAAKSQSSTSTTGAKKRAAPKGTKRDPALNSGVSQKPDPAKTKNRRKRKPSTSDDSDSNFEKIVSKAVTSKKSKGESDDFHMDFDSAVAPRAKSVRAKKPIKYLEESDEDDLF

Row | Structure (SMILES) | γH2AX protein expression, western blotting (γH2AX [1]) | γH2AX foci formation (γH2AX [2]) | tubulin polymerisation, morphological changes by immunofluorescence (tubulin polymerisation) | level of polymerised tubulin, Western blot (polymerised tubulin) | expressions of p-ATR, p-CHK1, and p-Cdc25C, Western blot (ATR/CHK1/Cdc25C pathway) | cell cycle distribution (HCT116 cells) | melting point [°C] | further results
1 | O=C(/C=C/c1ccccc1)c1ccc(-n2cc(CN3CCN(c4cc5c(cc4F)c(=O)c(C(=O)O)cn5C4CC4)CC3)nn2)cc1 [Compound 4a, (E) 7-(4-((1–(4-Cinnamoylphenyl)-1H-1,2,3-triazol-4-yl)methyl)piperazin-1-yl)-1-cyclopropyl-6-fluoro-4-oxo-1,4-dihydroquinoline-3-carboxylic acid] | increases in the γH2AX protein expression | induced γH2AX foci formation | significant tubulin polymerisation inhibition | decreased | increased | induced G2/M phase cell cycle arrest in a concentration-dependent manner |  | Topo-II inhibitory activity (Topo IIα): stronger inhibitory activity than 4b, 4i, and ETO; Top-I inhibitory activity, enzyme assay kit [3]: highest Top-I inhibitory activity
2 | CN(C)c1ccc(/C=C/C(=O)c2ccc(-n3cc(CN4CCN(c5cc6c(cc5F)c(=O)c(C(=O)O)cn6C5CC5)CC4)nn3)cc2)cc1 [Compound 4h, (E)-1-cyclopropyl-7–(4-((1–(4-(3-(4-(dimethylamino)phenyl)acryloyl)phenyl)-1H-1,2,3-triazol-4-yl)methyl)piperazin-1-yl)-6-fluoro-4-oxo-1,4-dihydroquinoline-3-carboxylic acid] |  |  |  |  |  |  | 177 to 179 | 
3 | O=C(/C=C/c1ccc(Br)cc1)c1ccc(-n2cc(CN3CCN(c4cc5c(cc4F)c(=O)c(C(=O)O)cn5C4CC4)CC3)nn2)cc1 [Compound 4d, (E)-7-(4-((1-(4-(3-(4-bromophenyl)acryloyl)phenyl)-1H-1,2,3-triazol-4-yl)methyl)piperazin-1-yl)-1-cyclopropyl-6-fluoro-4-oxo-1,4-dihydroquinoline-3-carboxylic acid] |  |  |  |  |  |  | 247 to 249 | 
4 | COc1ccc(/C=C/C(=O)c2ccc(-n3cc(CN4CCN(c5cc6c(cc5F)c(=O)c(C(=O)O)cn6C5CC5)CC4)nn3)cc2)cc1 [Compound 4g, (E)-1-Cyclopropyl-6-fluoro-7-(4-((1-(4-(3-(4-methoxyphenyl)acryloyl)phenyl)-1H-1,2,3-triazol-4-yl)methyl)piperazin-1-yl)-4-oxo-1,4-dihydroquinoline-3-carboxylic acid] |  |  |  |  |  |  | 254 to 257 | 
5 | O=C(/C=C/c1ccc(Cl)cc1)c1ccc(-n2cc(CN3CCN(c4cc5c(cc4F)c(=O)c(C(=O)O)cn5C4CC4)CC3)nn2)cc1 [Compound 4c, (E)-7-(4-((1-(4-(3-(4-chlorophenyl)acryloyl)phenyl)-1H-1,2,3-triazol-4-yl)methyl)piperazin-1-yl)-1-cyclopropyl-6-fluoro-4-oxo-1,4-dihydroquinoline-3-carboxylic acid] |  |  |  |  |  |  | 257 to 259 | 
6 | Cc1ccc(/C=C/C(=O)c2ccc(-n3cc(CN4CCN(c5cc6c(cc5F)c(=O)c(C(=O)O)cn6C5CC5)CC4)nn3)cc2)cc1 [Compound 4f, (E)-1-cyclopropyl-6-fluoro-4-oxo-7-(4-((1-(4-(3-(p-tolyl)acryloyl)phenyl)-1H-1,2,3-triazol-4-yl)methyl)piperazin-1-yl)-1,4-dihydroquinoline-3-carboxylic acid] |  |  |  |  |  |  | 259 to 261 | 
7 | O=C(/C=C/c1cccc(Cl)c1)c1ccc(-n2cc(CN3CCN(c4cc5c(cc4F)c(=O)c(C(=O)O)cn5C4CC4)CC3)nn2)cc1 [Compound 4b, (E)-7-(4-((1–(4-(3-(3-chlorophenyl)acryloyl)phenyl)-1H-1,2,3-triazol-4-yl)methyl)piperazin-1-yl)-1-cyclopropyl-6-fluoro-4-oxo-1,4-dihydroquinoline-3-carboxylic acid] | increases in the γH2AX protein expression | induced γH2AX foci formation | significant tubulin polymerisation inhibition | decreased | increased | induced G2/M phase cell cycle arrest in a concentration-dependent manner |  | 
8 | COc1ccc(/C=C/C(=O)c2ccc(-n3cc(CN4CCN(c5cc6c(cc5F)c(=O)c(C(=O)O)cn6C5CC5)CC4)nn3)cc2)cc1OC [Compound 4i, (E)-1-cyclopropyl-7-(4-((1-(4-(3–(3,4-dimethoxyphenyl)acryloyl)phenyl)-1H-1,2,3-triazol-4-yl)methyl)piperazin-1-yl)-6-fluoro-4-oxo-1,4-dihydroquinoline-3-carboxylic acid] | increases in the γH2AX protein expression | induced γH2AX foci formation | significant tubulin polymerisation inhibition | decreased | increased | induced G2/M phase cell cycle arrest in a concentration-dependent manner |  | 
